From PubChem BioAssay AID1996 come the findings set out here.

For orientation: kinetic solubility means the concentration staying in solution when a stock, usually in DMSO, is diluted into the medium.

SMILES strings stand for the structures. Values after ≈ are worked out from the molar mass of the structure shown.

The conditions of the data set: buffer; pH 7.4; 200.0 µM.
`O=c1ccnc2n1COCS2` returned a kinetic solubility of over 25.5 µg/mL.
The same measure for `CCN(C(=O)CSc1nc(C)nc2sc3c(c12)CCC3)C1CCS(=O)(=O)C1` (configuration not stated): 5.4 µg/mL (≈ 12.7 µM); for `Cc1ccccc1OCC(=O)NC(C)c1ccccc1` (configuration not stated): 39.8 µg/mL (≈ 148 µM); for `C/C(=N/NC(=O)CNC(=O)c1ccncc1)c1ccco1`: over 42.9 µg/mL.
`COc1ccc(OC)c(NC(=O)c2nc3ccccc3s2)c1` displayed a kinetic solubility of under 0.3 µg/mL.
The same measure for `COc1cc(-c2csc(NC3CCCCC3)n2)cc(OC)c1OC`: 6.6 µg/mL (≈ 18.9 µM).
`FC(F)(F)c1ccnc(N2CCN(Cc3cnc(-c4ccccc4)[nH]3)CC2)c1` registered a solubility (kinetic) of 26.8 µg/mL (≈ 69.2 µM).
`CCOc1cc2c(cc1OC)C(NC(=O)c1ccco1)CC2=O` (configuration not stated) showed a kinetic solubility of over 47.3 µg/mL.
The same measure for `Cc1cc(C)c2sc(N)nc2c1`: 25.1 µg/mL (≈ 141 µM); for `COc1ccc(CCNC(=O)COC(=O)/C=C/c2ccc3c(c2)OCO3)cc1OC`: 12.7 µg/mL (≈ 30.7 µM).
The same measure for `CCOc1ccccc1NC(=O)Cn1c(=O)oc2ccccc21`: 25.2 µg/mL (≈ 80.7 µM).
The same measure for `O=C1Nc2ccccc2/C1=C\C(=O)c1ccccc1`: 5.1 µg/mL (≈ 20.5 µM); for `O=S(=O)(c1ccc(F)cc1)N1CCCC1`: over 34.4 µg/mL; for `O=C(Cc1c[nH]c2ccccc12)NCc1ccccc1F`: 42.3 µg/mL (≈ 150 µM).
The molecule `Cc1cccc(C)c1NC(=O)C1CCCCN1C.Cl` (configuration not stated) came in with a solubility (kinetic) of over 42.4 µg/mL.
`CCCNC(=O)C/C(C)=N/NC(=O)C(=O)Nc1ccccn1` came in with a solubility (kinetic) of over 45.8 µg/mL.
The same measure for `CN(C)Cc1nc2ccccc2c(=O)n1CC#N`: over 36.3 µg/mL; for `O=C(Cc1ccc(Br)cc1)OCC(=O)N1CCOCC1`: over 51.3 µg/mL; for `CCc1nonc1NC(=O)c1oc2cc(C)c(Cl)cc2c1C`: 0.5 µg/mL (≈ 1.56 µM).
The same measure for `CC1=C(C)C(=O)N(C(C)CCc2ccccc2)C1=O` (configuration not stated): 4.4 µg/mL (≈ 17.1 µM); for `COc1ccccc1OCC#CCN1CCCC1.O=C(O)C(=O)O`: over 50.3 µg/mL.
The same measure for `CS(=O)(=O)N(CC(=O)NCc1cccnc1)C1CCCCC1`: over 48.8 µg/mL; for `COc1ccc(C(=O)NC2CCCCCCC2)cc1OC`: 15.2 µg/mL (≈ 52.2 µM).
Molecule `CCCCNC(=O)c1cc2cc(CC)ccc2[nH]1` returned a kinetic solubility of 1.9 µg/mL (≈ 7.78 µM).
The same measure for `O=C(c1ccc(Cl)cc1)C1CCN(Cc2ccccc2)CC1`: over 47.1 µg/mL; for `Cc1cccnc1NC(=O)CCn1c(=O)oc2ccccc21`: over 44.6 µg/mL.
The same measure for `CN(C(=O)COC(=O)c1ccc(Cl)c(S(=O)(=O)N2CCCCCC2)c1)C1CCS(=O)(=O)C1` (configuration not stated): over 76.1 µg/mL; for `CCOC(=O)C1CCCCN1Cc1cn(C)nc1-c1ccccc1F` (configuration not stated): over 51.8 µg/mL; for `O=C1Nc2ccc(Cl)cc2C(C#CC2CC2)(C(F)(F)F)O1` (configuration not stated): 19.6 µg/mL (≈ 62.1 µM).
The same measure for `COc1cc(C#N)c(N=C(SCC#N)N2CCOCC2)cc1OC`: over 52 µg/mL; for `O=C(c1nc2ccccc2[nH]1)c1ccccc1[N+](=O)[O-]`: 32.3 µg/mL (≈ 121 µM); for `Cc1ccc(NC(=O)c2ccco2)nc1`: 28.9 µg/mL (≈ 143 µM).
As to `COc1ccc(OC(=O)/C=C/c2ccc([N+](=O)[O-])cc2)cc1`, the kinetic solubility is under 0.6 µg/mL.
On to `CC(=O)Nc1ccc(NC(=O)C2C3CCC(C3)C2C(=O)O)cc1` (configuration not stated), for which the solubility (kinetic) is over 47.5 µg/mL.
The same measure for `CC(C)CC(=O)c1c[nH]c(C(=O)NCc2ccc(F)cc2)c1`: 0.7 µg/mL (≈ 2.32 µM).
In the case of `CCCSC1=C(C#N)C2(CCCCC2)C(C#N)=C(N)N1`, the solubility (kinetic) was over 43.3 µg/mL.
The same measure for `CCCCCCCn1c(C)nnc1-c1cnn(C)c1N`: over 41.5 µg/mL; for `O=C(NCCc1ccc(Cl)cc1)c1ccc2c(c1)OCCO2`: 0.8 µg/mL (≈ 2.52 µM).
Molecule `Cc1ccc(C(=O)NCC(=O)N2CCc3ccccc3C2)cc1C` displayed a kinetic solubility of over 48.4 µg/mL.
The same measure for `COc1ccc2oc(=N)c(C(=O)Nc3cccc(C)c3C)cc2c1`: under 0.3 µg/mL; for `NC(=O)C1CCN(CC(=O)Nc2nccs2)CC1`: 38.4 µg/mL (≈ 143 µM); for `Cc1ccc(NC(=O)C[n+]2ccccc2)cc1C.[Cl-]`: over 41.5 µg/mL.
The same measure for `O=C(Nc1ccc(NC(=O)C2CC2)nc1)c1ccccc1F`: 8.1 µg/mL (≈ 27.1 µM).
The same measure for `CCC/C(O)=C1\C(=O)CCCC1=NCCc1c(C)[nH]c2ccc(C)cc12`: 0.4 µg/mL (≈ 1.13 µM); for `CCOc1ccc(N2C(=O)C(Cl)=C(N3CCOCC3)C2=O)cc1`: over 50.5 µg/mL; for `COc1cccc(NC(=O)c2cc3ccccc3o/c2=N\O)c1`: 22.2 µg/mL (≈ 71.5 µM).
Consider `COc1cc(OC)cc(N2C(=O)CSCC2=O)c1`, for which the kinetic solubility is over 40.1 µg/mL.
The same measure for `CC(=O)N1CCN(C(=O)C2CCN(S(=O)(=O)c3ccccc3C(F)(F)F)CC2)CC1`: over 67.1 µg/mL; for `Fc1cccc(F)c1-c1nc(-c2ccncc2)no1`: 14.7 µg/mL (≈ 56.7 µM); for `Cc1ccc(CC(=O)Nc2ncc([N+](=O)[O-])s2)cc1`: 6.5 µg/mL (≈ 23.4 µM).
`Cc1ccc(NC(=O)C(c2ccccc2)c2ccccc2)nc1`: the solubility (kinetic) came to 11.5 µg/mL (≈ 38 µM).
The same measure for `CCCCNc1cc(C(=O)O)cc(S(N)(=O)=O)c1Oc1ccccc1`: over 54.7 µg/mL.
